In patent US20260042731A1, “(2,4-DICHLOROPHENOXY)ACETIC ACID ANALOGS” (CORTEVA AGRISCIENCE LLC, priority 2022, published 2026):
Read-outs that look alike come from different tables or passages of the source.

What was measured:
[1] = system: Amaranthus rudis (AMATA), tall water hemp; assay: Postemergence herbicide evaluation, growth of Amaranthus rudis (AMATA); assay type: in vivo; details: Amaranthus tuberculatus, post-emergence, read-out: Ave. AMATA, percent reduction in plant size relative to the untreated control; for pest or weed control at 280 g/ha: 280 g ae/ha; for pest or weed control at 560 g/ha: 560 g ae/ha
[2] = system: weeds ABUTH, AMATA, AMBEL, CHEAL, ERICA; assay: Postemergence herbicide evaluation, overall average % weed control (ABUTH, AMATA, AMBEL, CHEAL, ERICA); assay type: in vivo; details: post-emergence, read-out: Overall Ave % Weed Control; for pest or weed control at 280 g/ha: 280 g ae/ha; for pest or weed control at 560 g/ha: 560 g ae/ha
[3] = system: Abutilon theophrasti (ABUTH), velvetleaf; assay: Postemergence herbicide evaluation, growth of Abutilon theophrasti (ABUTH); assay type: in vivo; details: Abutilon theophrasti, post-emergence, read-out: AVE. ABUTH, percent reduction in plant size relative to the untreated control; for pest or weed control at 280 g/ha: 280 g ae/ha; for pest or weed control at 560 g/ha: 560 g ae/ha
[4] = system: Chenopodium album (CHEAL), common lambsquarters; assay: Postemergence herbicide evaluation, growth of Chenopodium album (CHEAL); assay type: in vivo; details: Chenopodium album, post-emergence, read-out: Ave. CHEAL, percent reduction in plant size relative to the untreated control; for pest or weed control at 280 g/ha: 280 g ae/ha; for pest or weed control at 560 g/ha: 560 g ae/ha
[5] = Volatility of compounds measured by thermogravimetric analysis (TGA); assay type: physicochemical
[6] = system: glyphosate resistant Conyza canadensis (L.) (ERICA), horseweed; assay: Postemergence herbicide evaluation, growth of Conyza canadensis (ERICA); assay type: in vivo; details: Erigeron canadensis, post-emergence, read-out: Ave. ERICA, percent reduction in plant size relative to the untreated control; for pest or weed control at 280 g/ha: 280 g ae/ha; for pest or weed control at 560 g/ha: 560 g ae/ha
[7] = system: Ambrosia artemisiifolia (AMBEL), common ragweed; assay: Postemergence herbicide evaluation, growth of Ambrosia artemisiifolia (AMBEL); assay type: in vivo; details: Ambrosia artemisiifolia, post-emergence, read-out: AVE. AMBEL, percent reduction in plant size relative to the untreated control; for pest or weed control at 280 g/ha: 280 g ae/ha; for pest or weed control at 560 g/ha: 560 g ae/ha

SMILES	pest or weed control at 280 g/ha ([1]; 168 h, 7 DAA) [%]	pest or weed control at 560 g/ha ([1]; 168 h, 7 DAA) [%]	pest or weed control at 280 g/ha ([1]; 336 h, 14 DAA) [%]	pest or weed control at 560 g/ha ([1]; 336 h, 14 DAA) [%]	pest or weed control at 280 g/ha ([1]; 504 h, 21 DAA) [%]	pest or weed control at 560 g/ha ([1]; 504 h, 21 DAA) [%]	pest or weed control at 280 g/ha ([2]; 168 h, 7 DAA) [%]	pest or weed control at 560 g/ha ([2]; 168 h, 7 DAA) [%]	pest or weed control at 280 g/ha ([2]; 336 h, 14 DAA) [%]	pest or weed control at 560 g/ha ([2]; 336 h, 14 DAA) [%]	pest or weed control at 280 g/ha ([2]; 504 h, 21 DAA) [%]	pest or weed control at 560 g/ha ([2]; 504 h, 21 DAA) [%]	pest or weed control at 280 g/ha ([3]; 168 h, 7 DAA) [%]	pest or weed control at 560 g/ha ([3]; 168 h, 7 DAA) [%]	pest or weed control at 280 g/ha ([3]; 336 h, 14 DAA) [%]	pest or weed control at 560 g/ha ([3]; 336 h, 14 DAA) [%]	pest or weed control at 280 g/ha ([3]; 504 h, 21 DAA) [%]	pest or weed control at 560 g/ha ([3]; 504 h, 21 DAA) [%]	pest or weed control at 280 g/ha ([4]; 168 h, 7 DAA) [%]	pest or weed control at 560 g/ha ([4]; 168 h, 7 DAA) [%]	further results
O=C(COc1ccc(Cl)cc1Cl)Nc1cc[nH]n1 [Compound D21]	72.5	90	88	90	67.5	100	69	76.5	78.1	86.5	80.4	93.8	32.5	47.5	37.5	57.5	47.5	75	82.5	80	pest or weed control at 280 g/ha ([4]; 336 h, 14 DAA): 95%; pest or weed control at 560 g/ha ([4]; 336 h, 14 DAA): 92.5%; pest or weed control at 280 g/ha ([4]; 504 h, 21 DAA): 92.5%; pest or weed control at 560 g/ha ([4]; 504 h, 21 DAA): 96%; TGA Data (rate of weight loss, volatility) [5]: 0.07078 µg/min; pest or weed control at 280 g/ha ([6]; 168 h, 7 DAA): 82.5%; pest or weed control at 560 g/ha ([6]; 168 h, 7 DAA): 80%; pest or weed control at 280 g/ha ([6]; 336 h, 14 DAA): 100%; pest or weed control at 560 g/ha ([6]; 336 h, 14 DAA): 100%; pest or weed control at 280 g/ha ([6]; 504 h, 21 DAA): 95%; pest or weed control at 560 g/ha ([6]; 504 h, 21 DAA): 98%; pest or weed control at 280 g/ha ([7]; 168 h, 7 DAA): 75%; pest or weed control at 560 g/ha ([7]; 168 h, 7 DAA): 85%; pest or weed control at 280 g/ha ([7]; 336 h, 14 DAA): 70%; pest or weed control at 560 g/ha ([7]; 336 h, 14 DAA): 92.5%; pest or weed control at 280 g/ha ([7]; 504 h, 21 DAA): 99.5%; pest or weed control at 560 g/ha ([7]; 504 h, 21 DAA): 100%
CC(C)CONC(=O)COc1ccc(Cl)cc1Cl [Compound D22]	80	92.5	92.5	92.5	87.5	100	81.5	85.5	93.5	97.3	97	99.3	72.5	82.5	93.5	98.5	100	99	80	82.5	pest or weed control at 280 g/ha ([4]; 336 h, 14 DAA): 91.5%; pest or weed control at 560 g/ha ([4]; 336 h, 14 DAA): 99%; pest or weed control at 280 g/ha ([4]; 504 h, 21 DAA): 97.5%; pest or weed control at 560 g/ha ([4]; 504 h, 21 DAA): 97.5%; TGA Data (rate of weight loss, volatility) [5]: 0.2649 µg/min; pest or weed control at 280 g/ha ([6]; 168 h, 7 DAA): 85%; pest or weed control at 560 g/ha ([6]; 168 h, 7 DAA): 85%; pest or weed control at 280 g/ha ([6]; 336 h, 14 DAA): 100%; pest or weed control at 560 g/ha ([6]; 336 h, 14 DAA): 99%; pest or weed control at 280 g/ha ([6]; 504 h, 21 DAA): 100%; pest or weed control at 560 g/ha ([6]; 504 h, 21 DAA): 100%; pest or weed control at 280 g/ha ([7]; 168 h, 7 DAA): 90%; pest or weed control at 560 g/ha ([7]; 168 h, 7 DAA): 85%; pest or weed control at 280 g/ha ([7]; 336 h, 14 DAA): 90%; pest or weed control at 560 g/ha ([7]; 336 h, 14 DAA): 97.5%; pest or weed control at 280 g/ha ([7]; 504 h, 21 DAA): 100%; pest or weed control at 560 g/ha ([7]; 504 h, 21 DAA): 100%
CC(C)ONC(=O)COc1ccc(Cl)cc1Cl [Compound D23]	82.5	82.5	90	90	72.5	87.5	78	82	92	94.1	92.9	96.5	70	90	93.5	99	99	100	80	85	pest or weed control at 280 g/ha ([4]; 336 h, 14 DAA): 96.5%; pest or weed control at 560 g/ha ([4]; 336 h, 14 DAA): 99%; pest or weed control at 280 g/ha ([4]; 504 h, 21 DAA): 94%; pest or weed control at 560 g/ha ([4]; 504 h, 21 DAA): 95%; TGA Data (rate of weight loss, volatility) [5]: 0.6973 µg/min; pest or weed control at 280 g/ha ([6]; 168 h, 7 DAA): 80%; pest or weed control at 560 g/ha ([6]; 168 h, 7 DAA): 77.5%; pest or weed control at 280 g/ha ([6]; 336 h, 14 DAA): 100%; pest or weed control at 560 g/ha ([6]; 336 h, 14 DAA): 97.5%; pest or weed control at 280 g/ha ([6]; 504 h, 21 DAA): 99%; pest or weed control at 560 g/ha ([6]; 504 h, 21 DAA): 100%; pest or weed control at 280 g/ha ([7]; 168 h, 7 DAA): 77.5%; pest or weed control at 560 g/ha ([7]; 168 h, 7 DAA): 75%; pest or weed control at 280 g/ha ([7]; 336 h, 14 DAA): 80%; pest or weed control at 560 g/ha ([7]; 336 h, 14 DAA): 85%; pest or weed control at 280 g/ha ([7]; 504 h, 21 DAA): 100%; pest or weed control at 560 g/ha ([7]; 504 h, 21 DAA): 100%
